# Read-outs that look alike come from different tables or passages of the source.
# What was measured:
# HIV-1 (RF) = assay: Antiviral drug assay in CEM-SS cells infected with HIV-1 RF (efficacy, tetrazolium reduction); format: cell-based; settings: for Efficacy % CC (cell control): CEM-SS, HIV-1 (RF), day 6; for EC50: read-out: 50% effective concentration (EC50)
# Experimental: Antiviral Drug Assay in CEM-SS Cells
# (§1) This assay was used to test the effectiveness of anti-HIV drug monotherapy in the established T-cell line CEM-SS infected with HIV-1RF, HIV-1IIIb, HIV-2ROD, or other cytolytic variants of HIV. The antiviral agent and control (known antiviral drug—AZT) efficacy and cytotoxicity were determined by the metabolic reduction of the tetrazolium salt MTS (available from Promega).
# (§2) The drugs were solubilized in DMSO (dimethyl sulfoxide). Three to ten vials of the antiviral agent and AZT were prepared and maintained at −70° C. CEM-SS cells were in logarithmic growth phase at the time of experimentation. Virus (HIV-1RF) stocks that past the necessary quality controls (killing effect on the type of cells used, limited variability, etc) were thawed and maintained on ice until required for addition.
# (§3) Half-log serial dilutions of the antiviral agent or compound of the invention, H2K1001 (90i), were made in tissue culture media (RPMI 1640 without phenol red, supplemented with 10% heat inactivated fetal bovine serum, 1% L-Glutamine, 1% Pen/Strep and 50 ug/ml gentimycin). Virus, cell, drug and diluent (ethanol) controls were included for these tests. Virus was added after cells and drugs were mixed. Cell, drug, and virus containing cultures were incubated for six (6) days without additional feeding at which time the cultures were evaluated macrosopically and microscopically for cell toxicity, and the tetrazolium salt MTS was added for quantitation by the colorimetric determination of formazan production (optical density).
# (§4) Drug efficacy and cytotoxicity effects were determined six days after infection by the metabolic reduction of the tetrazolium salt XTT to its' formazan by surviving cells and was quantitated by determination of optical density at 450 nm with background subtraction at 650 nm (Tables 1–4).
# (§5) The drug plate analysis reports from this assay are provided below in Tables 1–4. Calculated endpoints (EC50, etc.) were determined using Cho and Cho Median Effect Equation (Daids Virology Manual for HIV Laboratories, Compiled by The Division of Aids, National Institute of Allergy and Infectious Diseases, National Institutes of Health and Collaborating Investigators, Version January 1997).
# HIV-1 (P2) = assay: Antiviral drug assay in PBMC infected with clinical isolate HIV-1 P2 (supernatant p24 ELISA); format: cell-based; settings: for Efficacy % p24 Reduction: HIV-1 P2, day 7
# Experimental: (§6) This assay was used to test the effectiveness of anti-HIV drug monotherapy in peripheral blood mononuclear cells (PBMC) infected with clinical isolates of HIV-1. Drug efficacy was determined by the production of supernatant HIV-1 p24. Drug-induced cytotoxicity was determined by the metabolic reduction of tetrazolium salts (MTS; Promega).
# (§7) The antiviral drug or agent of the invention, H2K-1001 (90i), was solubilized. PBMCs, stimulated with PHA (phytohemagglutinin) for three days were employed throughout. Virus stocks (U.S. Clinical isolates) grown in PBMCs only, that past the necessary quality controls (i.e., replicate to high titer in PBMCs and meet the requirements as to genotype and phenotype) were rapidly thawed and maintained on ice until required for infection.
# (§8) Half-log serial dilutions of test drugs and controls were prepared in tissue culture media (RPMI 1640 without phenol red, supplemented with 10% heat inactivated fetal bovine serum, 1% L-Glutamine, 1% Pen/Strep and 50 μg/ml gentamicin). Virus and cell controls were included on each test plate. Virus was added after cells and drugs were mixed. Cell, drug and virus containing cultures were incubated for seven (7) days with an interim feeding at day three or four.
# (§9) Supernatants were sampled at seven days for p24 determination by antigen capture ELISA. Cytotoxicity was measured by the metabolic reduction of the tetrazolium salt according to the manufacturer's (Promega) recommendations.
# (§10) The drug analysis reports from these studies are provided below in Tables 7–10. Efficacy (EC50) and viability (IC50) determinations were made using Cho and Cho Median Effect Equation, as noted above. Efficacy is expressed as the 50% effective concentration (EC50) and drug induced toxicity as the 50% inhibitory concentration (IC50).
# susceptible isolates = assay: AZT in studies of susceptible isolates in PBMCs; format: cell-based, HIV-1; settings: typical value
# Experimental: Testing in PBMCs was directed against a primary clinical isolate of HIV-1 P2, which is resistant to a variety of non-nucleoside inhibitors or HIV-1 reverse transcriptase and, in our hands, AZT. Testing AZT (control) against this virus, as expected, produced a relatively high EC50 of 3 uM. Typically AZT produces EC50s of less than 0.01 uM in studies of susceptible isolates in PBMCs.
# [1] = test system: CEM-SS T-lymphoblastoid cells; assay: Toxicity testing in CEM-SS T-lymphoblastoid cells (tetrazolium reduction); format: cell-based; settings: for Toxicity % CC (cell control): day 6; for IC50: read-out: 50% inhibitory concentration, IC50 (drug induced toxicity)
# Experimental: as §1, §2, §3, §4, §5
# [2] = test system: peripheral blood mononuclear cells (PBMC); assay: Toxicity testing in PBMC (tetrazolium MTS reduction); format: cell-based
# Experimental: as §6, §7, §8, §9, §10
smiles,measurement,setting,value
"Cc1cn([C@H]2C[C@H](N=[N+]=[N-])[C@@H](CO)O2)c(=O)[nH]c1=O [AZT, reference compound]",Efficacy % CC (cell control),HIV-1 (RF); 0.001 uM,42%
same,Efficacy % CC (cell control),HIV-1 (RF); 0.003 uM,44%
same,Efficacy % CC (cell control),HIV-1 (RF); 0.01 uM,90%
same,Efficacy % CC (cell control),HIV-1 (RF); 0.03 uM,83%
same,Efficacy % CC (cell control),HIV-1 (RF); 0.1 uM,85%
same,Efficacy % CC (cell control),HIV-1 (RF); 0.3 uM,82%
same,Efficacy % CC (cell control),HIV-1 (RF); 1 uM,90%
same,Efficacy % CC (cell control),HIV-1 (RF); 3 uM,82%
same,Efficacy % CC (cell control),HIV-1 (RF); 10 uM,87%
same,EC50,"HIV-1 (RF); CEM-SS cells, HIV-1 RF",~3.5 nM
same,Efficacy % p24 Reduction,HIV-1 (P2); 0.001 uM,12%
same,Efficacy % p24 Reduction,HIV-1 (P2); 0.003 uM,21%
same,Efficacy % p24 Reduction,HIV-1 (P2); 0.01 uM,14%
same,Efficacy % p24 Reduction,HIV-1 (P2); 0.03 uM,10%
same,Efficacy % p24 Reduction,HIV-1 (P2); 0.10 uM,20%
same,Efficacy % p24 Reduction,HIV-1 (P2); 0.32 uM,26%
same,Efficacy % p24 Reduction,HIV-1 (P2); 1 uM,22%
same,Efficacy % p24 Reduction,HIV-1 (P2); 3 uM,51%
same,Efficacy % p24 Reduction,HIV-1 (P2); 10 uM,77%
same,EC50,"HIV-1 (P2); clinical isolate HIV-1 P2, read-out: EC50",3000 nM
same,EC50,susceptible isolates,< 10 nM
same,Toxicity % CC (cell control),"[1]; 0.001 uM, CEM-SS",93%
same,Toxicity % CC (cell control),"[1]; 0.003 uM, CEM-SS",100%
same,Toxicity % CC (cell control),"[1]; 0.01 uM, CEM-SS",109%
same,Toxicity % CC (cell control),"[1]; 0.03 uM, CEM-SS",104%
same,Toxicity % CC (cell control),"[1]; 0.1 uM, CEM-SS",102%
same,Toxicity % CC (cell control),"[1]; 0.3 uM, CEM-SS",102%
same,Toxicity % CC (cell control),"[1]; 1 uM, CEM-SS",96%
same,Toxicity % CC (cell control),"[1]; 3 uM, CEM-SS",95%
same,Toxicity % CC (cell control),"[1]; 10 uM, CEM-SS",95%
same,IC50,[1]; CEM-SS cells,> 10000 nM
same,Toxicity % CC (cell control),[2]; 0.001 uM,100%
same,Toxicity % CC (cell control),[2]; 0.003 uM,111%
same,Toxicity % CC (cell control),[2]; 0.01 uM,100%
same,Toxicity % CC (cell control),[2]; 0.03 uM,99%
same,Toxicity % CC (cell control),[2]; 0.10 uM,101%
same,Toxicity % CC (cell control),[2]; 0.32 uM,99%
same,Toxicity % CC (cell control),[2]; 1 uM,105%
same,Toxicity % CC (cell control),[2]; 3 uM,105%
same,Toxicity % CC (cell control),[2]; 10 uM,104%
"O=C(OCCOCCOC(=O)c1ccccc1)c1ccccc1 [H2K1001 (90i), diethylene glycol dibenzoate]",Efficacy % CC (cell control),HIV-1 (RF); 0.01 ug/ml,42%
same,Efficacy % CC (cell control),HIV-1 (RF); 0.03 ug/ml,80%
same,Efficacy % CC (cell control),HIV-1 (RF); 0.1 ug/ml,87%
same,Efficacy % CC (cell control),HIV-1 (RF); 0.3 ug/ml,83%
same,Efficacy % CC (cell control),HIV-1 (RF); 1 ug/ml,84%
same,Efficacy % CC (cell control),HIV-1 (RF); 3 ug/ml,84%
same,Efficacy % CC (cell control),HIV-1 (RF); 10 ug/ml,82%
same,Efficacy % CC (cell control),HIV-1 (RF); 33 ug/ml,86%
same,Efficacy % CC (cell control),HIV-1 (RF); 100 ug/ml,88%
same,50% effective concentration (EC50),"HIV-1 (RF); CEM-SS cells, HIV-1 RF, listed as 90i",approximately 0.020 ug/ml
same,EC50,"HIV-1 (RF); Human immunodeficiency virus 1, CEM-SS, CEM-SS cells, HIV-1 RF",0.02 µg/mL
same,Efficacy % p24 Reduction,HIV-1 (P2); 0.01 ug/ml,23%
same,Efficacy % p24 Reduction,HIV-1 (P2); 0.03 ug/ml,25%
same,Efficacy % p24 Reduction,HIV-1 (P2); 0.10 ug/ml,36%
same,Efficacy % p24 Reduction,HIV-1 (P2); 0.33 ug/ml,36%
same,Efficacy % p24 Reduction,HIV-1 (P2); 1 ug/ml,53%
same,Efficacy % p24 Reduction,HIV-1 (P2); 3 ug/ml (3.2 in Table 11),87%
same,Efficacy % p24 Reduction,HIV-1 (P2); 10 ug/ml,95%
same,Efficacy % p24 Reduction,HIV-1 (P2); 32 ug/ml,94%
same,Efficacy % p24 Reduction,HIV-1 (P2); 100 ug/ml,93%
same,EC50,"HIV-1 (P2); Human immunodeficiency virus 1, PBMC, clinical isolate HIV-1 P2, read-out: 50% effective concentration (EC50)",0.8 µg/mL
same,50% effective concentration (EC50),"HIV-1 (P2); clinical isolate HIV-1 P2, listed as 90i",approximately 0.8 ug/ml
same,Toxicity % CC (cell control),"[1]; 0.01 ug/ml, CEM-SS",100%
same,Toxicity % CC (cell control),"[1]; 0.03 ug/ml, CEM-SS",103%
same,Toxicity % CC (cell control),"[1]; 0.1 ug/ml, CEM-SS",104%
same,Toxicity % CC (cell control),"[1]; 0.3 ug/ml, CEM-SS",100%
same,Toxicity % CC (cell control),"[1]; 1 ug/ml, CEM-SS",100%
same,Toxicity % CC (cell control),"[1]; 3 ug/ml, CEM-SS",99%
same,Toxicity % CC (cell control),"[1]; 10 ug/ml, CEM-SS",93%
same,Toxicity % CC (cell control),"[1]; 33 ug/ml, CEM-SS",94%
same,Toxicity % CC (cell control),"[1]; 100 ug/ml, CEM-SS",106%
same,"50% inhibitory concentration, IC50 (drug induced toxicity)","[1]; CEM-SS cells, listed as 90i",> 100 µg/mL
same,IC50,"[1]; Homo sapiens, CEM-SS",> 100 µg/mL
same,Toxicity % CC (cell control),[2]; 0.01 ug/ml,94%
same,Toxicity % CC (cell control),[2]; 0.03 ug/ml,103%
same,Toxicity % CC (cell control),[2]; 0.10 ug/ml,91%
same,Toxicity % CC (cell control),[2]; 0.33 ug/ml,94%
same,Toxicity % CC (cell control),[2]; 1 ug/ml,97%
same,Toxicity % CC (cell control),[2]; 3 ug/ml (3.2 in Table 11),94%
same,Toxicity % CC (cell control),[2]; 10 ug/ml,100%
same,Toxicity % CC (cell control),[2]; 32 ug/ml,104%
same,Toxicity % CC (cell control),[2]; 100 ug/ml,111%
same,IC50,"[2]; no unit printed, read-out: IC50 (drug induced toxicity)",> 100 µg/mL
same,IC50,"[2]; read-out: 50% inhibitory concentration, IC50 (drug induced toxicity)",> 100 µg/mL

# From patent publication US7144922B2, “Method and compound for the prophylaxis or treatment of an immunodeficiency condition, such as AIDS” (priority 2002, dated 2006)
